Our source for the IC50 values is patent publication EP0391411A2, “3'-Substituted methyl nucleosides as antiviral agents” (Bristol-Myers Squibb Company, priority 1989, dated 1990).

Experiment [1] relates to Murine leukemia virus (MuLV). Nature of the experiment: UV-XC plaque assay against murine retroviruses. Type of experiment: cell-based. The following applies: SC1, SC-1 cells. As to the method: The compounds were evaluated for antiviral activity against Murine leukemia virus (MuLV) strains using the UV-XC plaque assay (Rowe, et al, "Virology", 42:1136, 1970).
The MuLV strains were grown in feral mouse cells (SC-1) and used for antiviral tests using the UV-XC plaque assay. Briefly, SC-1 cells are grown as monolayers in 4-well tissue culture plates and inoculated with approximately 50-100 plaque forming units of MuLV in 0.5 mL of 5% EMEM containing 20 ug/mL DEAE/Dextran. After 1 hour adsorption, the inoculum is removed and 5 mL of 5% EMEM containing three-fold dilutions of the appropriate drug are added. Five days later, the cultures are UV-irradiated with an ultraviolet lamp and rat XC sarcoma cells are added to the cultures. Three to four days after UV-irradiation, the cell cultures are stained with Giemsa stain and the plaques are enumerated. Antiviral activity is expressed in terms of the reduction in the mean number of UV-XC plaques counted in the drug treated, virus-infected cultures compared with mean number of plaques counted in untreated, virus-infected control cultures.

The next experiment concerns HIV (LAV strain). Nature of the experiment: Anti-HIV/LAV activity in CEM-F cells, p-24 gag protein ELISA. Type of experiment: cell-based. Conditions: Human immunodeficiency virus 1, 192 h, eight days, p-24 gag protein in supernatant, read-out: HIV (ID50). As to the method:
The anti-HIV/LAV activity was measured in cultures of CEM-F cells. The CEM cells were infected with approximately 30 TCID₅₀ (50% tissue culture infectious dose) of HIV (LAV strain). The cells were then incubated for 45 minutes at 37°C. The test compounds, in culture medium, were added at various concentrations to the infected cells and then incubated for a further eight days. After eight days, the antiviral activity was evaluated in the culture media supernatant for p-24 gag protein by an enzyme capture assay (ELISA). The antiviral activity was expressed as the dose that inhibits 50% of the virus expression (ID₅₀ in µM) as detected by the assay described.

For `Cc1cn([C@H]2C[C@H](N=[N+]=[N-])[C@@H](CO)O2)c(=O)[nH]c1=O` [AZT, 3′-Azido-3′-deoxythymidine, reference compound], the IC50 worked out at 0.0066 µM in experiment [1] and 1 µM in the experiment with HIV (LAV strain).

On to `Cc1cn([C@H]2C[C@H](CO)[C@@H](CO)O2)c(=O)[nH]c1=O` [Example 4², 1-(2,3-Dideoxy-3-C-hydroxymethyl-β-D-erythro-pentofuranosyl)thymine], for which the IC50 in experiment [1] is 17.7 µM; with HIV (LAV strain), more than 10 µM.

In experiment [1], `Cc1cn([C@@H]2C[C@H](CO)[C@@H](CO)O2)c(=O)[nH]c1=O` [Example 4³, 1-(2,3-Dideoxy-3-C-hydroxymethyl-α-D-erythropentofuranosyl)thymine] registered an IC50 of more than 32 µM.

For the compound `Nc1ccn([C@@H]2O[C@H](CO)[C@@H](CO)[C@H]2O)c(=O)n1` [Example 8, 1-(3-Deoxy-3-C-hydroxymethyl-β-D-ribofuranosyl)cytosine], the IC50 in experiment [1] is more than 100 µM; in the experiment on HIV (LAV strain), 0.8 µM.

Consider `O=c1ccn([C@H]2C[C@H](CO)[C@@H](CO)O2)c(=O)[nH]1` [Example 12, 1-(2,3-Dideoxy-3-C-hydroxymethyl-β-D-erythro-pentofuranosyl)uracil], for which the IC50 in experiment [1] is 83 µM; with HIV (LAV strain), more than 10 µM.

Regarding `Nc1ccn([C@H]2C[C@H](CO)[C@@H](CO)O2)c(=O)n1` [Example 16², 1-(2,3-Dideoxy-3-C-hydroxymethyl-β-D-erythro-pentofuranosyl)cytosine], the IC50 was 0.06 µM in experiment [1] and more than 0.1 µM in the experiment on HIV (LAV strain).

In the case of `Nc1ccn([C@@H]2C[C@H](CO)[C@@H](CO)O2)c(=O)n1` [Example 16³, 1-(2,3-Dideoxy-3-C-hydroxymethyl-α-D-erythro-pentofuranosyl)cytosine], the IC50 in the experiment on HIV (LAV strain) turned out to be 4.7 µM.

`Nc1ncnc2c1ncn2[C@H]1C[C@H](CO)[C@@H](CO)O1` [Example 25, 9-[2,3-Dideoxy-3-C-hydroxymethyl-β-D-erythro-pentofuranosyl]adenine]: the IC50 with HIV (LAV strain) was more than 10 µM.

Regarding `O=c1[nH]cnc2c1ncn2[C@H]1C[C@H](CO)[C@@H](CO)O1` [Example 26, 9-(2,3-Dideoxy-3-C-hydroxymethyl-β-D-erythro-pentofuranosyl)hypoxanthine], the figures for the IC50 (in experiment [1]; in the experiment on HIV (LAV strain)) were 5 µM and more than 10 µM, respectively.
